Laboratory results as given in publication PMC12311865, “In Vitro Evaluation of the Potential Interactions of Zearalenone-14-sulfate and Zearalenone-14-glucuronide with Human Cytochrome P450 Enzymes, Organic Anion Transporting Polypeptides, and ATP-Binding Cassette Multidrug Transporters” (ACS Omega, 2025).

Assays:
[1] = molecular target: T1, CYP2C9 (Homo sapiens, UniProt P11712); design: method as in our previous study; details: ref our previous study; cited from earlier work
T1 construct: purchased Merck
T1 sequence (P11712 whole entry): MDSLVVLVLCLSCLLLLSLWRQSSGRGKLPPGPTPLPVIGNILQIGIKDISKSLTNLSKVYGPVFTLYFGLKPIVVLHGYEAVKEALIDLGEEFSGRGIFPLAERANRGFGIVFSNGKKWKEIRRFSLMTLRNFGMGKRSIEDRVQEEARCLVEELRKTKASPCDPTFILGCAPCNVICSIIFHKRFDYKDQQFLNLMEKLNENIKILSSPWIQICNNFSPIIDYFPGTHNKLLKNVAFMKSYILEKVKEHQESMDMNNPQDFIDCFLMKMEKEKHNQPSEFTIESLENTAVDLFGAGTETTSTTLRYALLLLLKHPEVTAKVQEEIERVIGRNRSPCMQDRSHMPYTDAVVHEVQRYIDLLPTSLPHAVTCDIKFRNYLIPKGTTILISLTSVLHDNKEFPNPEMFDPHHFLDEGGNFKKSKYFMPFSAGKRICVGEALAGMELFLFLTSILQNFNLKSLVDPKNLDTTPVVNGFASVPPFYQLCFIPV

[2] = molecular target: T2, MDR1 (Homo sapiens, UniProt P08183); assay: MDR1-mediated NMQ vesicular transport (Sf9 membrane vesicles); assay type: biochemical; details: 0–50 μM; NMQ 5 μM
T2 construct: made in house; host or cells: Sf9 insect cells (baculovirus)
T2 sequence (P08183 whole entry): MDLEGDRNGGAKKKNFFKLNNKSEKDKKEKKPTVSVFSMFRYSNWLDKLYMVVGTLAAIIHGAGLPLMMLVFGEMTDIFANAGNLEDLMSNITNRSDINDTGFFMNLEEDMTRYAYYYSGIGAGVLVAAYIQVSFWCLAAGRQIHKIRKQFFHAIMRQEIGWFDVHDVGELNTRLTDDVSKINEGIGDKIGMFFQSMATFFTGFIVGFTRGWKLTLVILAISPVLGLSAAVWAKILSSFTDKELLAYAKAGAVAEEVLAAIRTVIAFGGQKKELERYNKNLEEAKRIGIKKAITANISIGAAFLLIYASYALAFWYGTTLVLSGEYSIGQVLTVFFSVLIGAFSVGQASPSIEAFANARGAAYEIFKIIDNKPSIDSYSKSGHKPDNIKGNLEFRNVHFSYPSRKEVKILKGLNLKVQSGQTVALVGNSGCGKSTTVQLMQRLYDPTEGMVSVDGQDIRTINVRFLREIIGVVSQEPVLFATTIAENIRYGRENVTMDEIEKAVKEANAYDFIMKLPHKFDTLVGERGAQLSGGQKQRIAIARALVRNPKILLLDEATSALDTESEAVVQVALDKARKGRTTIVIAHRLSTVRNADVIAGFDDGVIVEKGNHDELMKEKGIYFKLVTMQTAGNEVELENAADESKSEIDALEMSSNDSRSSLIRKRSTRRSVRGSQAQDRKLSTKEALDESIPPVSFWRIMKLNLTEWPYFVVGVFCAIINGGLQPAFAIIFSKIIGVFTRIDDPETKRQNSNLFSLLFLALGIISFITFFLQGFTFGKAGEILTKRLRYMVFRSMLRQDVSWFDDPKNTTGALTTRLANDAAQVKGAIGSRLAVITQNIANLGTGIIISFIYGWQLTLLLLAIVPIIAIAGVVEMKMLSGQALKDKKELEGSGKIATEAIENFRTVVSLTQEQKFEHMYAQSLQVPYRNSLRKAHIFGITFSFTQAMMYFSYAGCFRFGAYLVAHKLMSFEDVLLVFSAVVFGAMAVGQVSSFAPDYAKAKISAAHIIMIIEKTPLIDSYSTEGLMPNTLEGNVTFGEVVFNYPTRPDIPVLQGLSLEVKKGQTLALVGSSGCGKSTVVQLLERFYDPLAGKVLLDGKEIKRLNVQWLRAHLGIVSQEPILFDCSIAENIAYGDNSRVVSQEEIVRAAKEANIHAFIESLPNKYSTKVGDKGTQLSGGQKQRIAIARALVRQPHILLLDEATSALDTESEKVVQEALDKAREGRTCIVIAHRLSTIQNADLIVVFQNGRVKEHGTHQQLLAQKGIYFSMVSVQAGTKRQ
Procedure: Experiments were performed in insect membrane vesicles, as described previously. Briefly, human MDR1, BCRP, and MRP2 were expressed in Sf9 insect cells by baculoviruses. On the third day of infection, cells were collected and membrane vesicles were obtained by mechanical disruption and differential centrifugation. To get full activity for BCRP, the cholesterol levels of the vesicles were adjusted to the level of mammalian membranes. Vesicles were stored at −80 °C, and the total protein content of the preparations was measured by the Lowry method (used as a reference for the quantity). […] A 100 μL volume of fluorescence stabilizer was added to the samples (DMSO for LY, 0.1 M H2SO4 for NMQ, and 0.1 M NaOH for CDCF). Fluorescence of samples was measured by plate readers (Victor X3 and Enspire PerkinElmer; Waltham, MA) at appropriate wavelengths (filters in the Victor X3 reader were 405/535 nm for LY and 492/635 nm for CDCF; while in the Enspire reader, NMQ was measured at 360/430 nm excitation/emission wavelengths). ABC-related transport was calculated by subtracting passive uptake measured without Mg-ATP from values measured in the presence of Mg-ATP.

[3] = molecular target: T3, OATP1B3 (Homo sapiens, UniProt Q9NPD5); design: method as in earlier report; details: same experimental model; ref earlier report; cited from earlier work
T3 construct: expressed in transfected cells; host or cells: A431
T3 sequence (Q9NPD5 1-702): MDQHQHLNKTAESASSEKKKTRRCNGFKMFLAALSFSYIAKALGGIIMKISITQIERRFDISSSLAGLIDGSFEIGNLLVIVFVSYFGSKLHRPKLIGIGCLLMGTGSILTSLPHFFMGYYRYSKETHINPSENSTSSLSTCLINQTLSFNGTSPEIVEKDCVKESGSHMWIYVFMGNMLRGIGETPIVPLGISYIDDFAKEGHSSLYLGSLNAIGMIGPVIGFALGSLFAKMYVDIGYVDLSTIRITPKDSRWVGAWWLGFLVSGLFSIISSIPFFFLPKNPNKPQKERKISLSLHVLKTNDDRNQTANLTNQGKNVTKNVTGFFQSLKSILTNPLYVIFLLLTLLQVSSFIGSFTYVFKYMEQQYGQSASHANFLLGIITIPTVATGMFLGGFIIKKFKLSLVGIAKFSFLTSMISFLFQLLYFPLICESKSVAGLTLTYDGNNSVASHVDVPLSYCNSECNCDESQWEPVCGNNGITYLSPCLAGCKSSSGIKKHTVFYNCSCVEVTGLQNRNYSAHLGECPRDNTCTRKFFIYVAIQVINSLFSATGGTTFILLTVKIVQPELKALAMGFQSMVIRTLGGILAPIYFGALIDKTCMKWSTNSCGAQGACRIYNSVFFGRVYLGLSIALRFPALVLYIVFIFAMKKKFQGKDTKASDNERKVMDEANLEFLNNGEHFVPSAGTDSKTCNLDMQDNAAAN

[4] = molecular target: T4, OATP2B1 (Homo sapiens, UniProt O94956); design: method as in earlier report; details: same experimental model; ref earlier report; cited from earlier work
T4 construct: expressed in transfected cells; host or cells: A431
T4 sequence (O94956 1-709): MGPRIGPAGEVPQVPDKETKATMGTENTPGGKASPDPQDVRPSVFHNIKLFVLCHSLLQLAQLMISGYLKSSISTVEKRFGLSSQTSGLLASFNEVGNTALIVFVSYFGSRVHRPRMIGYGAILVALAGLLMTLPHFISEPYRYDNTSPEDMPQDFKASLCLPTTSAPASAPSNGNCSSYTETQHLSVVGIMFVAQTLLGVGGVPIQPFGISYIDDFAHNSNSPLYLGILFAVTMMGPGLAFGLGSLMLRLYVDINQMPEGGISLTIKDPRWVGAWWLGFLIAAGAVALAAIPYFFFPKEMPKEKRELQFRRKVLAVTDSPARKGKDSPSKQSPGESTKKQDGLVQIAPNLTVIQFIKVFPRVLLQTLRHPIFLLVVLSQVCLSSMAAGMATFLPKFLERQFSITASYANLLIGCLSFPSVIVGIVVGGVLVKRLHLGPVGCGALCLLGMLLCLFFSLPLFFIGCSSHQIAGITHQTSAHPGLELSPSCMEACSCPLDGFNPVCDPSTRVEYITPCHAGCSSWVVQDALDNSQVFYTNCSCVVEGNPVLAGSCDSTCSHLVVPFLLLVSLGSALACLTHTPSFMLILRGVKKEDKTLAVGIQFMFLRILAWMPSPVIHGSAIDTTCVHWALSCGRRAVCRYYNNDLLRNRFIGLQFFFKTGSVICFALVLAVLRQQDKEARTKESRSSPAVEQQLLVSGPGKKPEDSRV

In the case of `C[C@H]1CCCC(=O)CCC/C=C/c2cc(O)cc(O)c2C(=O)O1` [ZEN, Zearalenone], the IC50 [1] is listed as 9.8 µM, the “effect on MDR1-driven NMQ transport” value [2] is listed as “inhibition only at 50 μM concentration” and the IC50 [3] is listed as 8.1 µM. The IC50 [4] was 2.3 µM.
